Results on 15 molecules are retold here after patent US10494360B2, “Inhibitors of indoleamine 2,3-dioxygenase” (NETHERLANDS TRANSLATIONAL RESEARCH CENTER B.V., priority 2016, dated 2019).

Where “and” joins values, the source holds several entries; their conditions need not be identical. Identical values can stand only once.

One experiment deals with TDO (Homo sapiens, UniProt P48775). Conditions: read-out: KM,Trp of TDO for L-tryptophan; cited from earlier work.
In experiment [1] the target is T1, IDO1 (Homo sapiens, UniProt P14902). The arrangement: Recombinant full-length IDO1 (Seegers, N., et al.) and all other assay components were diluted in IDO1 reaction buffer; made in house. Conditions: read-out: KM,Trp of IDO1 for L-tryptophan; cited from earlier work.
T1 sequence (P14902 whole entry, species assumed): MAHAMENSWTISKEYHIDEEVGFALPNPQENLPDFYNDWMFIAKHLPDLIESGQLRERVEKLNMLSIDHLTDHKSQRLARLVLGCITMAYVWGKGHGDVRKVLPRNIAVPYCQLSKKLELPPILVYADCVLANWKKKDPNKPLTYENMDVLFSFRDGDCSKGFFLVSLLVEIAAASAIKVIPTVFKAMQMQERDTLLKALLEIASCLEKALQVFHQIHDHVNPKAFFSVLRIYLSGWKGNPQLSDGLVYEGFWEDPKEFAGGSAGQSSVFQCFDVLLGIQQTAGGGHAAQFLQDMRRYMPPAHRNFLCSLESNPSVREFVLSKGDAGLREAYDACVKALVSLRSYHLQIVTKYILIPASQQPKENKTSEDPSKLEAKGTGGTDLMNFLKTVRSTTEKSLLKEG
A further experiment relates to influenza virus. The settings on record: influenza virus-infected mice; cited from earlier work.
The test system of experiment [2] is melanoma and glioblastoma. The settings on record: mouse tumor models for melanoma and glioblastoma; cited from earlier work.
The subject of experiment [3] is IDO1 expressed in mouse tumor cells. The settings on record: pre-immunized mice; Uyttenhove et al.; cited from earlier work.
The test system of another experiment is Leishmania major. Conditions: Leishmania major infection; cited from earlier work.
The test system of the next experiment is lung carcinoma. Conditions: syngeneic mouse lung carcinoma model and transgenic mouse model; cited from earlier work.
Experiment [4] concerns the target T1, IDO1. Put plainly: Biochemical IDO1 assay (NFK GreenScreen). On the set-up: Recombinant full-length IDO1 (Seegers, N., et al.) and all other assay components were diluted in IDO1 reaction buffer; made in house. The settings on record: for IC50: recombinant full-length IDO1 25 nM, L-tryptophan 100 μM, NFK Green detection, read-out: IC50, inhibitory potency on IDO1. The method, boiled down:
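Recombinant full-length IDO1 in 50 mM NaH2PO4 pH 7.0 with 0.05% Tween-20 and 1% glycerol converted 100 μM L-tryptophan (final) over 60 min at room temperature with compound, 0.3% DMSO.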

The target of experiment [5] is T1, IDO1. Put plainly: Cell-based assay for IDO1 in interferon-γ stimulated A-375 melanoma cells. Conditions: interferon-γ stimulation, 48 hours, read-out: IC50, cell-based IDO1 (NFK levels). As for the experimental part:
The biological activity of IDO1 inhibitors can be measured by applying above detection methods to cells that are treated with test compound. The expression of IDO1 can be induced in many different cell lines by stimulation with IFNγ (Takikawa, O., et al., J. Biol. Chem. 263: 2041; 1988; Seegers, et al.), or IDO1 can be expressed in cells that lack endogenous IDO1 by transfection of an expression vector containing IDO1 cDNA.
A-375 melanoma cells were purchased from LGC Standards GmbH (Wesel, Germany) and cultured in DMEM tissue culture medium (Life Technologies, Bleiswijk, The Netherlands), supplemented with 10% (v/v) bovine calf serum. Compounds were dissolved in DMSO and diluted in DMEM. Final DMSO concentration in the assay was 0.4% (v/v). Eight thousand cells per well in 35 μl were seeded in a black 384-well tissue plate (cat. No. 781086; Greiner Bio-One GmbH, Frickenhausen, Germany) and allowed to adhere by incubation at 37° C., 95% humidity, and 5% CO2 overnight. Then, 5 μl of compound solution was added to the cells 1 hour prior to stimulation with 5 μl of 500 ng/ml interferon-γ (R&D Systems, Minneapolis, Minn., USA) diluted in DMEM medium. At the same time, 5 μl of L-tryptophan in 20 mM Hepes buffer pH 7.4 was added. Incubation was continued for 48 hours. To determine NFK levels, 12 μl NFK Green™ (NTRC, Oss, The Netherlands) was added to each well, and the plate was sealed and incubated for 4 hours at 37° C. Fluorescence was measured on an EnVision multimode reader (Perkin Elmer, Waltham, Mass., USA). IC50 were calculated using XLfit™ software (ID Business Solutions, Ltd., Surrey, U.K.).

For experiment [6], the target named is tryptophan 2,3-dioxygenase (TDO) (Homo sapiens, UniProt P48775). The settings on record: Seegers et al. 2014; cited from earlier work.
Sequence of tryptophan 2,3-dioxygenase (TDO) (P48775 whole entry, species assumed): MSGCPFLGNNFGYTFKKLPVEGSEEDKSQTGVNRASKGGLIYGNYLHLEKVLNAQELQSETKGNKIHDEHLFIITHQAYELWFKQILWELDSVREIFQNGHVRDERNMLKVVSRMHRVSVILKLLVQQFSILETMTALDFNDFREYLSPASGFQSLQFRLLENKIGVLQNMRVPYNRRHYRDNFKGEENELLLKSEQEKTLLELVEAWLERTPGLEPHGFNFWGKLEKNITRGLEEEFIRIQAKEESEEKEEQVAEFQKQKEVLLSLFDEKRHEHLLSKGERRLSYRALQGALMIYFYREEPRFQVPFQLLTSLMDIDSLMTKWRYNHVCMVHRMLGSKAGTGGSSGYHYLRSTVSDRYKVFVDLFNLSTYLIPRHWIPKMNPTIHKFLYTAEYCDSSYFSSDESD
The subject of the next experiment is melanoma. Conditions: Yue et al. 2009; cited from earlier work.

Sequence of TDO (P48775 whole entry, species assumed): as above

For orientation: Km means the concentration of substrate that gives half-maximal velocity. In the case of `N[C@@H](Cc1c[nH]c2ccccc12)C(=O)O` [L-tryptophan], the values for the Km on TDO and on IDO1 [1] were 190 µM and 6 µM, respectively.
In the case of `Cn1cc(C[C@H](N)C(=O)O)c2ccccc21` [Example 1-MT, 1-methyl-L-tryptophan], in the experiment with influenza virus, the “T cell response against influenza virus” value is reported as “enhanced T cell response against the virus”. The “efficacy of PD-1 and CTLA4 antibodies in combination” value in experiment [2] is “increased the efficacy of antibodies targeting the immune checkpoints PD-1 and CTLA4”. Also, the “reversal of IDO1-mediated prevention of tumor cell rejection” value in [3] is given as “this effect could be reverted”. For the same molecule, in the experiment on Leishmania major, the parasite burden entry was “reduced the parasite burden”. Further, the “efficacy of a cancer vaccine in combination” value with lung carcinoma is “increased the efficacy of a cancer vaccine”.
As usually defined, the IC50 is the concentration needed to halve the response being measured. Take `O=C1CN(C(=O)c2c(F)cccc2F)C(c2cccc(Cl)c2)N1O` (stereo not shown) [Example 15, 2-(3-Chlorophenyl)-1-(2,6-difluorobenzoyl)-3-hydroxy-imidazolidin-4-one]: the IC50 is at most 1000 nM at IDO1 [4] and under 5 µM at IDO1 [5].
For `Cn1cc(-c2cc(F)c(C(=O)N3CC(=O)N(O)C3c3cccc(Br)c3)c(F)c2)cn1` (stereo not shown) [Example 119, 2-(3-Bromophenyl)-1-[2,6-difluoro-4-(1-methylpyrazol-4-yl)benzoyl]-3-hydroxy-imidazolidin-4-one], the concentration for half-maximal inhibition (IC50) at IDO1 [4] was at most 1000 nM; at IDO1 [5], under 5 µM.
In the case of `C=Cc1cc(F)c(C(=O)N2CC(=O)N(O)C2c2cccc(Br)c2)c(F)c1` (stereo not shown) [Example 115, 2-(3-Bromophenyl)-1-(2,6-difluoro-4-vinyl-benzoyl)-3-hydroxy-imidazolidin-4-one], the figures for the concentration for half-maximal inhibition (IC50) at IDO1 [4] and on IDO1 [5] were at most 1000 nM and under 5 µM, respectively.
On to `O=C1CN(C(=O)c2c(F)cccc2F)C(c2ccc(Cl)c(C(F)(F)F)c2)N1O` (stereo not shown) [Example 9, 2-[4-Chloro-3-(trifluoromethyl)phenyl]-1-(2,6-difluorobenzoyl)-3-hydroxy-imidazolidin-4-one], for which the values for the IC50 on IDO1 [4] and on IDO1 [5] were at most 1000 nM and under 5 µM, respectively.
`O=C1CN(Cc2ccccc2F)C(c2cccc(Br)c2)N1O` (stereo not shown) [Example 125, 2-(3-Bromophenyl)-1-[(2-fluorophenyl)methyl]-3-hydroxy-imidazolidin-4-one]: the concentration for half-maximal inhibition (IC50) at IDO1 [4] was at most 1000 nM; at IDO1 [5] it was under 5 µM.
In the case of `O=C1CN(C(=O)c2c(F)cccc2F)C(c2cccc(Br)c2)N1O` (single isomer, unassigned) [Example 142a, 2-(3-bromophenyl)-1-(2,6-difluorobenzoyl)-3-hydroxy-imidazolidin-4-one], the “relative activity of separated isomers” value at IDO1 [4] (less active / most active isomer of the pair, assay not given) was “less active isomer”. The half-maximal inhibitory concentration (IC50) at IDO1 [4] is ≤ 5000 nM and 1000 to 5000 nM; on IDO1 [5], under 5 µM.
With `C=Cc1cccc(C2N(O)C(=O)CN2C(=O)c2c(F)cccc2F)c1` (stereo not shown) [Example 129, 1-(2,6-Difluorobenzoyl)-3-hydroxy-2-(3-vinylphenyl)imidazolidin-4-one], the IC50 at IDO1 [4] is at most 1000 nM; at IDO1 [5], under 5 µM.
In the case of `Nc1nonc1C(=NO)Nc1ccc(F)c(Cl)c1` [compound 51, 4-amino-N-(3-chloro-4-fluorophenyl)-N′-hydroxy-1,2,5-oxadiazole-3-carboximidamide], the “inhibition of TDO activity in biochemical assays” value in experiment [6] is on record as “inhibit the activity of tryptophan 2,3-dioxygenase (TDO)”. For the same molecule, the “tumor growth in mouse model for melanoma” value in the experiment on melanoma is reported as “reduction of tumor growth”.
Take `O=C1CN(C(=O)c2c(F)cc(C#CC3CCCCC3)cc2F)C(c2cccc(Br)c2)N1O` (stereo not shown) [Example 108, 2-(3-Bromophenyl)-1-[4-(2-cyclohexylethynyl)-2,6-difluoro-benzoyl]-3-hydroxy-imidazolidin-4-one]: the IC50 was at most 1000 nM on IDO1 [4] and under 5 µM at IDO1 [5].
Take `C#Cc1cccc(C2N(O)C(=O)CN2C(=O)c2c(F)cccc2F)c1` (stereo not shown) [Example 98, 1-(2,6-Difluorobenzoyl)-2-(3-ethynylphenyl)-3-hydroxy-imidazolidin-4-one]: the IC50 on IDO1 [4] is at most 1000 nM; on IDO1 [5], under 5 µM.
As to `O=C1CN(C(=O)c2c(F)cc(Br)cc2F)C(c2cccc(Br)c2)N1O` (stereo not shown) [Example 85, 1-(4-Bromo-2,6-difluoro-benzoyl)-2-(3-bromophenyl)-3-hydroxy-imidazolidin-4-one], the half-inhibitory concentration (IC50) was at most 1000 nM at IDO1 [4] and under 5 µM at IDO1 [5].
Turning to `O=C1CN(C(=O)c2ccccc2F)C(c2ccc(F)c(Br)c2)N1O` (stereo not shown) [Example 46, 2-(3-Bromo-4-fluoro-phenyl)-1-(2-fluoro-benzoyl)-3-hydroxy-imidazolidin-4-one], the values for the half-inhibitory concentration (IC50) at IDO1 [4] and on IDO1 [5] were at most 1000 nM and under 5 µM, respectively.
For the molecule `O=C1CN(C(=O)c2c(F)cc(-c3ccncc3)cc2F)C(c2cccc(Br)c2)N1O` (stereo not shown) [Example 118, 2-(3-Bromophenyl)-1-[2,6-difluoro-4-(4-pyridyl)benzoyl]-3-hydroxy-imidazolidin-4-one], the figures for the IC50 at IDO1 [4] and on IDO1 [5] were at most 1000 nM and under 5 µM, respectively.
